“Also recorded” adds a separate entry of the source.
Experiments:
RyR1 = target: T1, RyR1 (Mus musculus, UniProt E9PZQ0); assay: Ca2+ sparks frequency in saponin skinned EDL muscle fibres of post myocardial infarction (PMI) mice; type: cell-based; details: 1 μM 4F4t-NeuroP, acute incubation; EDL fibres from PMI mice
T1 construct: Fluo-4 Ca2+ sparks

mouse diaphragm (VIDD) = assay: Diaphragm force-frequency relationship after 6 h of mechanical ventilation (murine model of VIDD); type: in vivo, C57/BL6 mice; details: for prevention of VIDD in murine model: general statement; for prevention of VIDD in murine model / protection against mechanical ventilation (force-frequency relationship): mice; for protection against mechanical ventilation (force-frequency relationship): IV
Protocol: 35 adult male mice (10 to 12 weeks old, 25 to 30 g) C57/BL6 mice were separated into five groups. Three groups were intubated with a 22-gauge angio-catheter and mechanically ventilated for 6 consecutive hours using a volume-driven small-animal ventilator (Minivent®, Harvard Apparatus, Saint-Laurent, Canada). Tidal volume was established at […] body weight with a respiratory rate of 150 breaths/min, a positive end-expiratory pressure (PEEP) level from 2 to 4 cm H2O and a fraction of inspired oxygen of 0.21. Non-spontaneous ventilation was defined as a lack of diaphragm contractile activity attested by repetitive stereotypical deflections observed in the airway pressure curve.
The mice were divided into two groups. The first group (control) received methanol, at the volume corresponding to the equivalent volume brought with 4F4t-NeuroP, intravenously (IV) infused over a 5-minute period, 20 minutes before start of MV. The second group of mice received 4F4t-NeuroP intravenously (IV) infused over a 5-minute period, 20 minutes before start of MV. The two groups were intubated and treated in an identical manner (see Matecki et al., 2016 for details^15).
At the end of the protocol of MV, the entire diaphragm was surgically excised and mice were euthanized, by exsanguination. Isometric contractile properties were assessed as described previously in detail (Matecki et al., 2016^15). The excised diaphragm strip was mounted into jacketed tissue bath chambers filled with equilibrated and oxygenated Krebs solution. The muscles were supra-maximally stimulated using square wave pulses (Model S48; Grass Instruments, West Warwick, RI). The force-frequency relationship was determined by sequentially stimulating the muscles for 600 ms at 10, 20, 30, 50, 60, 80, 100 and 120 Hz with 1 minute between each stimulation train. After measurement of contractile properties, muscles were measured at Lo (the length at which the muscle produced maximal isometric tension), dried and weighted. For comparative purposes, diaphragmatic force production was normalized for total muscle strip cross-sectional area and expressed in N·cm^−2. The total muscle strip cross-sectional area was determined by dividing muscle weight by its length and tissue density (1.056 g/cm^3).
Mice were anesthetized and mechanically ventilated for 6 hours. Mice were randomized to receive or not at the beginning of the ventilation a single IV injection of 4F4t-NeuroP at concentrations ranging from 0.01-100 μM to build a dose-response curve of the force-frequency relationship in order to define the optimal concentration.
As for 4F4t-NeuroP, VB558 was injected intravenously into the mouse at a concentration of 1 and 10 μM before ventilating the mice for 6 hours.

[1] = test system: mouse diaphragm muscle fibers; assay: Diaphragm muscle fibre atrophy (cross section area, fibre type) after 12 hours of mechanical ventilation in mice; type: in vivo; details: 10 μM, 12 h MV
Protocol: FIG. 3: A. Force frequency relationship of mice diaphragm muscle, after 12 hours of mechanical ventilation, treated or not with 10 μM 4F4t-NeuroP. […] Representative immunostaining of fast and slow diaphragm muscle fibers in mouse. Antibodies against fast- and slow-type myosin ATPase were used to perform immunostaining on cryosections of mouse diaphragm. Muscle membrane was counterstained with dystrophin antibodies. The staining was performed in diaphragm muscle 12 h after MV with or without 4F4t-NeuroP. Average cross-section area was quantified in each condition including all fibre type (B.) or by discriminating slow versus fast fibres (C.). D. Average distribution of Fast versus Slow twitch fibres in each condition. (*p<0.05 vs control)
6 hours of MV remains a rather short time of ventilation which represents a particular interest to explore proximal pathophysiological mechanisms of VIDD. As previously reported, 6 hours of mechanical ventilation is able to induce force deficit without histological alterations. However, 12 hours of mechanical ventilation can induce muscle atrophy by a mechanism mediated by RyR1 dependent SR Ca^2+-leak. The inventors therefore tested here the beneficial effect of 4F4t-NeuroP after 12 hours of mechanical ventilation.

RyR2 = details: cited from earlier work
prostanoid receptors = assay: In vitro binding assay on prostanoid receptors (agonist or antagonist effect); details: effects higher than 50% considered significant
Description: Prostaglandin (or prostanoid) receptors represent a family of cell surface membrane receptors known to bind and respond principally to metabolites of the polyunsaturated fatty acid (PUFA), arachidonic acid. As some of them are known to modulate cAMP production or intracellular calcium concentration, and based on the chemical structure of neuroprostanes (i.e DHA derivatives), the inventors performed an in vitro binding assay to specifically evaluate the potential agonist or antagonist effect of VB558 on established prostanoid receptors. Results showing an inhibition (or stimulation for assays run in basal conditions) higher than 50% are considered to represent significant effects of the test compounds.

[2] = test system: ventricular cardiomyocytes derived from DMD hIPSc (RyR2); assay: Diastolic level of calcium in ventricular cardiomyocytes derived from DMD hIPSc (indo-1); type: cell-based, human
Protocol: FIG. 6: Effect of Hexanor on the diastolic level of Calcium in ventricular cardiomyocytes derived from DMD and control hIPSc. The cardiomyocytes were loaded with indo-1 to assess in a ratiometric manner the intracellular level of calcium. […] A. The level of calcium is higher in DMD compared to control cells. This is prevented by hexanor (1 μM).
The inventors then tested the impact of VB558 on the diastolic level of Calcium in ventricular cardiomyocytes derived from Duchenne muscular dystrophy (DMD).

[3] = Pharmacokinetic study in pigs, plasmatic concentration after IV bolus; type: in vivo, piglets; details: single IV bolus 0.250 mg·kg^−1, 3 pigs
Protocol: In a first set of experiment, a pharmacokinetic study was performed on 3 control pig injected with a single bolus of VB558 (0.250 mg·kg^−1). Blood samples were collected every regularly during 12 hours to evaluate the plasmatic concentration of VB558. […] In order to test the preventing effect of VB558 in the piglet model, the protocol of IV injection was slightly adapted to the duration of the mechanical ventilation (i.e 72 hours). The inventors injected a bolus of 0.250 mg·kg^−1 then a maintenance dose of 0.025 mg·kg^−1 every 12 hours (FIG. 5B). The VB558 group was compared to a group of piglets (placebo) receiving the same amount of solvent (methanol) (FIG. 5B).

T1 sequence (E9PZQ0 whole entry): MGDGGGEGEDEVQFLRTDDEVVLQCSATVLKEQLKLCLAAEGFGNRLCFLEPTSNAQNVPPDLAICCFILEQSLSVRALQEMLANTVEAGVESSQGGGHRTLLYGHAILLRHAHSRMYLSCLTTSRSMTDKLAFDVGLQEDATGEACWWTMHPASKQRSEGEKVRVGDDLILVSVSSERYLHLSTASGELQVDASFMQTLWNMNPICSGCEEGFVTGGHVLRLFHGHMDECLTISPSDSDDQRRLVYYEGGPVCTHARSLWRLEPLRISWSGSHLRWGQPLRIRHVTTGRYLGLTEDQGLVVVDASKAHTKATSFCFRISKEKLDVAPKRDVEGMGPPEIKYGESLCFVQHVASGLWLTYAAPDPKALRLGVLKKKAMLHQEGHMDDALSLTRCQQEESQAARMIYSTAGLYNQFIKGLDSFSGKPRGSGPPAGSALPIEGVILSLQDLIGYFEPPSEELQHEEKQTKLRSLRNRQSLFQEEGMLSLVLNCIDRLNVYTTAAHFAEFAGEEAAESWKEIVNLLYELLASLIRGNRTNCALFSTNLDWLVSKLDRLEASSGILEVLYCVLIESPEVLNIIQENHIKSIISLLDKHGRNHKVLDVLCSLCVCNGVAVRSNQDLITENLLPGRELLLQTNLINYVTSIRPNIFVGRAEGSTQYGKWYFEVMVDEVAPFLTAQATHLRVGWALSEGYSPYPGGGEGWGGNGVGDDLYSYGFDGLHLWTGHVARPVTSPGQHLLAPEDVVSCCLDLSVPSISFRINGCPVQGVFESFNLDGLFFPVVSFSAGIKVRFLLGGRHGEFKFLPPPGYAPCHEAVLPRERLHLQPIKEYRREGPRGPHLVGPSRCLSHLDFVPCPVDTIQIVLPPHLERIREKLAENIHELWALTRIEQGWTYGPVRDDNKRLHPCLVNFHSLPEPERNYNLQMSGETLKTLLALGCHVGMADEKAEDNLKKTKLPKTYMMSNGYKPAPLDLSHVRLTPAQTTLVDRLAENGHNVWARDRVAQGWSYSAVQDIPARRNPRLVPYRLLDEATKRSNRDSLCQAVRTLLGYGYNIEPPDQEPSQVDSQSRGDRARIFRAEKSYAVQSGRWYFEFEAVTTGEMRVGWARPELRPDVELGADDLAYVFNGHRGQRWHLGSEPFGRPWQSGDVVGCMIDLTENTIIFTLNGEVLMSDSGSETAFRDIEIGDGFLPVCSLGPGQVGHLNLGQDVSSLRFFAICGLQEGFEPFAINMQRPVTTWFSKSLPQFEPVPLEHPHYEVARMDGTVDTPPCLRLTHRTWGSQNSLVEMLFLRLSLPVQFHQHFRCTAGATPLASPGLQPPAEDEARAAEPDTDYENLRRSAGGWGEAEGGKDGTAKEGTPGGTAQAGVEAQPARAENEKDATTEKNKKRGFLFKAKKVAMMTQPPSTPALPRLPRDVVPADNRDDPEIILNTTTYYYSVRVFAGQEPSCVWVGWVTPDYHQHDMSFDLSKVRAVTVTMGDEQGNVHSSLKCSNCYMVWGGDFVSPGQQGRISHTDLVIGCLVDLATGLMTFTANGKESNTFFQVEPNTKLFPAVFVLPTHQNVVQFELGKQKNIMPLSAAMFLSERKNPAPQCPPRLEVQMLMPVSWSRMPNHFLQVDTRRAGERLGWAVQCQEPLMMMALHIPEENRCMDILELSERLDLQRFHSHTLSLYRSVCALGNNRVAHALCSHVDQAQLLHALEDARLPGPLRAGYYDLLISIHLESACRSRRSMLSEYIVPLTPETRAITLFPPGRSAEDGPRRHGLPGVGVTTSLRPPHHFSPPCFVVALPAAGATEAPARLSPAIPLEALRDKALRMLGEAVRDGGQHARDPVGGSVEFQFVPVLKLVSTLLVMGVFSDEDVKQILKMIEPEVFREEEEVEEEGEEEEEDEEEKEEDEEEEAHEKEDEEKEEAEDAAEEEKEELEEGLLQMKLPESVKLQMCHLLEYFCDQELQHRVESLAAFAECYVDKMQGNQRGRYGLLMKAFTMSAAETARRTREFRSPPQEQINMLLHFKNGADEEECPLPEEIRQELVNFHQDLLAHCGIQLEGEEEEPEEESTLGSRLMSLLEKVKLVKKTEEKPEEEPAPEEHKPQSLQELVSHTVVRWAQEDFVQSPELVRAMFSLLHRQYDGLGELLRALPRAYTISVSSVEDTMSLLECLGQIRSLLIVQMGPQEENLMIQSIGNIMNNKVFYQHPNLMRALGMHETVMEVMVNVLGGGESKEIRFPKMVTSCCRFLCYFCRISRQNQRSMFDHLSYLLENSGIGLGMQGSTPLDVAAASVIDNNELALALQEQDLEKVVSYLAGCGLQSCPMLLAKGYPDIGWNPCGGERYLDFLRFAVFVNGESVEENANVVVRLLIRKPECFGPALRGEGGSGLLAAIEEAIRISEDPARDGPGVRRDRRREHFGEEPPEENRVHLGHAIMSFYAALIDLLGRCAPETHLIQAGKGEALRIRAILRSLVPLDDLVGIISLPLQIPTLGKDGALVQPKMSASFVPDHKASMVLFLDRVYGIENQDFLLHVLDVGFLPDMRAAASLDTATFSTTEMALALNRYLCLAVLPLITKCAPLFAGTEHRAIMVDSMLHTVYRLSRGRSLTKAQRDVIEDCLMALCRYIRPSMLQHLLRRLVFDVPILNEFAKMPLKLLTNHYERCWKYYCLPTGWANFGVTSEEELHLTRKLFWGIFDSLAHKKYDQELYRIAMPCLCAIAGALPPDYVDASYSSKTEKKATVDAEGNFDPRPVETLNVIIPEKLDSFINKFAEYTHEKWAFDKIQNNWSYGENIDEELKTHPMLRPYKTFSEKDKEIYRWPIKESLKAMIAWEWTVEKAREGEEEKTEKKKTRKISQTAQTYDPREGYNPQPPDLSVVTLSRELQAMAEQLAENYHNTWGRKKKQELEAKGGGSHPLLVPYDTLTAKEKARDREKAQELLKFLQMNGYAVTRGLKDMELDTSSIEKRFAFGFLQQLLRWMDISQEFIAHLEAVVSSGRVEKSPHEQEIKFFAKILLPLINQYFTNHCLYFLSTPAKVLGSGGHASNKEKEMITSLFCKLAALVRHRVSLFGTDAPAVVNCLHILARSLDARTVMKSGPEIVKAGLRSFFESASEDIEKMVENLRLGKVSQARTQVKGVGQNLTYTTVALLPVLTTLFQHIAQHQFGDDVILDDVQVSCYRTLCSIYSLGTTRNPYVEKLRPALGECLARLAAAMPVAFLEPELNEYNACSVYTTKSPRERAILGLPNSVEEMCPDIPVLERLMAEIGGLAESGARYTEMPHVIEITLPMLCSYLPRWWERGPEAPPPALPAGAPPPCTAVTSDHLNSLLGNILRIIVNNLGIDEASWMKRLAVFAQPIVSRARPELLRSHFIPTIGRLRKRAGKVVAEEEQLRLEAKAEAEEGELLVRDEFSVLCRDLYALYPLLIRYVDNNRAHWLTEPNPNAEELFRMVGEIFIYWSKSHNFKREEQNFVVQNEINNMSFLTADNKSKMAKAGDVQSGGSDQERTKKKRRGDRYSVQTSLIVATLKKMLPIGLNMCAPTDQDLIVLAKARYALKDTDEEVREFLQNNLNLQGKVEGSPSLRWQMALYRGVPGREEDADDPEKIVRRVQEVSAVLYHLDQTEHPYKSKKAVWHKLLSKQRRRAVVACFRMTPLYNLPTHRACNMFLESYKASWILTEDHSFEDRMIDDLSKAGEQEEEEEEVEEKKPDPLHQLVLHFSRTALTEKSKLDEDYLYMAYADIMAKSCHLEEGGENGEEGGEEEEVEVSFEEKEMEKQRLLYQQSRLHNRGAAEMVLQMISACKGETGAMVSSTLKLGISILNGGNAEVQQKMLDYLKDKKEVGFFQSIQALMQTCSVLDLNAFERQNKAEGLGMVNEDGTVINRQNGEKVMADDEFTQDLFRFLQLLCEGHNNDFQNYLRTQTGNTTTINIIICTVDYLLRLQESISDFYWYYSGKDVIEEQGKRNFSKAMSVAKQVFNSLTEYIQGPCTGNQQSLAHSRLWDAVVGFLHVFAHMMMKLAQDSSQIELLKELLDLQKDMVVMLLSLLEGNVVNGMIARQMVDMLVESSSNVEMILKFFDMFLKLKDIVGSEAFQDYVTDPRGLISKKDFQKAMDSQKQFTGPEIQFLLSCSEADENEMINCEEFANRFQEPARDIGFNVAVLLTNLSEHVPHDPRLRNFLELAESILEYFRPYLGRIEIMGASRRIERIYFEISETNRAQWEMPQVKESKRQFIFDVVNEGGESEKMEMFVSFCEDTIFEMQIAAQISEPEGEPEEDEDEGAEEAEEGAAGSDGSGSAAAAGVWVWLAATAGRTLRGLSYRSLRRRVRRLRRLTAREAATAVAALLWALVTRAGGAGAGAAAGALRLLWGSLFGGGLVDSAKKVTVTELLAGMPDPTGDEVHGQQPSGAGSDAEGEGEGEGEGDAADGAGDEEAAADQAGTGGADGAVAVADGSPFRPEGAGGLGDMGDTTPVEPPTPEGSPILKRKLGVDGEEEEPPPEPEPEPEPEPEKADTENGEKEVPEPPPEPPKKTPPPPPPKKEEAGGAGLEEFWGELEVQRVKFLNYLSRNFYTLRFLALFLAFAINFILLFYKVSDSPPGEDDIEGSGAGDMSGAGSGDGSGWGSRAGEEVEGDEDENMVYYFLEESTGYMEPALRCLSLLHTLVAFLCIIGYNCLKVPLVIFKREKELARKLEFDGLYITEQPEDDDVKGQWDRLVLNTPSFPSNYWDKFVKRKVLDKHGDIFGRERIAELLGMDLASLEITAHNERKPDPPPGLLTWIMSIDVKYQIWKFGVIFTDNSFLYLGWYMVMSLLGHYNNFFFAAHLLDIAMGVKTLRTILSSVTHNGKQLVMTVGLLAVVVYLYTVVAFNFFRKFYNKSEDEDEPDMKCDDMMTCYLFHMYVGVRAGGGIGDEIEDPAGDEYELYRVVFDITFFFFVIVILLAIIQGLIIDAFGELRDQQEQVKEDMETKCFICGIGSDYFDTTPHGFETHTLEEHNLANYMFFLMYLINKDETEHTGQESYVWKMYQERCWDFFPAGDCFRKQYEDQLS

CC/C=C\C/C=C\C/C=C\C[C@@H]1[C@H](/C=C/C(O)CCC(=O)O)[C@@H](O)C[C@H]1O (mixture of isomers) [Compound 4F4t-NeuroP, 4(RS)-4-F4t-Neuroprostane]
Ca2+-sparks frequency / RyR1-dependent leaky behavior (RyR1): full prevention of this RyR1-dependent leaky behavior | prevention of VIDD in murine model (mouse diaphragm (VIDD)): prevent with a high efficiency VIDD | prevention of VIDD / diaphragm weakness (force-frequency relationship) (mouse diaphragm (VIDD); single IV injection of 4F4t-NeuroP 0.01-100 μM, 6 h MV): prevents diaphragm weakness induced after 6 h of mechanical ventilation; also recorded: full prevention of VIDD | concentration giving maximal effect in VIDD prevention (mouse diaphragm (VIDD); single IV injection, dose response 0.01-100 μM, 6 h MV, maximal force at 120 Hz): about 0.3 μM | distribution of fiber type (slow vs fast) [1]: without changing the distribution of fiber type | muscle fibre atrophy / cross section area (CSA) [1]: prevents diaphragm muscle fibres atrophy after 12 hours of mechanical ventilation independently of the fibre phenotype; also recorded: prevents the reduction of cross section area (CSA), independently of the muscle fiber phenotype | RyR2 mediated Ca2+-leak in cardiomyocytes (RyR2; previous study [30]): able to prevent RyR2 mediated Ca^2+-leak in cardiomyocytes | cardiac anti-arrhythmic effect, RyR2 stabilization (RyR2; previously reported (ref. 21)): the active molecule was not DHA itself but a non-enzymatic metabolite of DHA

CC/C=C\C[C@@H]1[C@H](/C=C/C(O)CCC(=O)O)[C@@H](O)C[C@H]1O (mixture of isomers) [VB558, (E)-6-((1S,2R,3R,5S)-3,5-dihydroxy-2-((Z)-pent-2-en-1-yl)cyclopentyl)-4-hydroxyhex-5-enoic Acid]
significant effect (inhibition or stimulation higher than 50%) at prostanoid receptors (prostanoid receptors): not observed at any of the receptors studied | protection against mechanical ventilation (force-frequency relationship) (mouse diaphragm (VIDD); VB558 1 μM, 6 h MV): significant protection against mechanical ventilation in a range similar to that was obtained with 4F4t-NeuroP | protection against mechanical ventilation (force-frequency relationship) (mouse diaphragm (VIDD); VB558 10 μM, 6 h MV): significant protection against mechanical ventilation in a range similar to that was obtained with 4F4t-NeuroP | prevention of VIDD in murine model (mouse diaphragm (VIDD)): prevents VIDD; also recorded: prevent with a high efficiency VIDD | diastolic level of calcium ([2]; 1 μM, without isoproterenol, DMD hIPSc cardiomyocytes): prevented | RyR2 dysfunction in DMD ([2]; DMD-derived ventricular cardiomyocytes): may be prevented | resting calcium under isoproterenol stimulation ([2]; hexanor, Iso 1 μM, DMD hIPSc cardiomyocytes): full normalization of the resting calcium | Tmax ([3]; pig, plasma, 0.25 mg/kg, read-out: time of plasmatic peak): 5 to 10 min | biodistribution [3]: fast biodistribution | dissipation of plasmatic peak [3]: dissipated rapidly within an hour

Reference: US20260373164A1, “4(RS)-4-F4-NEUROPROSTANE DERIVATIVES (4-F4T-NEUROP) AND THEIR USE IN TREATING VENTILATOR INDUCED DIAPHRAGMATIC DYSFUNCTION AND OTHER DISEASES” (INSTITUT NATIONAL DE LA SANTÉ ET DE LA RECHERCHE MÉDICALE, priority 2022, published 2026)
